Tests used:
Assay type in all cases: in vivo
[1] = system: Spodoptera littoralis (Egyptian cotton leaf worm); test: Spodoptera littoralis (Egyptian cotton leaf worm): Feeding/contact activity; conditions: foliar, 72 h, application rate of 200 ppm, L1 larvae on cotton leaf discs, assessed 3 days after infestation, read-out: control (mortality)
Description: Spodoptera littoralis (Egyptian cotton leaf worm): Feeding/contact activity Cotton leaf discs were placed onto agar in 24-well microtiter plates and sprayed with aqueous test solutions prepared from 10,000 ppm DMSO stock solutions. After drying the leaf discs were infested with five L1 larvae. The samples were assessed for mortality 3 days after infestation.

[2] = system: Myzus persicae (Green peach aphid); test: Myzus persicae (Green peach aphid): Feeding/Contact activity; conditions: foliar, 144 h, application rate of 200 ppm, aphid population of mixed ages on sunflower leaf discs, assessed 6 days after infestation, read-out: control (mortality)
Description: Myzus persicae (Green peach aphid): Feeding/Contact activity Sunflower leaf discs were placed onto agar in a 24-well microtiter plate and sprayed with aqueous test solutions prepared from 10,000 ppm DMSO stock solutions. After drying, the leaf discs were infested with an aphid population of mixed ages. The samples were assessed for mortality 6 days after infestation.

[3] = system: Euschistus heros (Neotropical Brown Stink Bug); test: Euschistus heros (Neotropical Brown Stink Bug): Feeding/contact activity; conditions: 120 h, application rate of 200 ppm, N2 nymphs on soybean leaves, assessed 5 days after infestation, read-out: control (mortality)
Description: Euschistus heros (Neotropical Brown Stink Bug): Feeding/contact activity Soybean leaves on agar in 24-well microtiter plates were sprayed with aqueous test solutions prepared from 10,000 ppm DMSO stock solutions. After drying the leaves were infested with N2 nymphs. The samples were assessed for mortality 5 days after infestation.

[4] = system: Tetranychus urticae (Two-spotted spider mite); test: Tetranychus urticae (Two-spotted spider mite): Feeding/contact activity; conditions: foliar, 192 h, application rate of 200 ppm, mite population of mixed ages (mobile stages) on bean leaf discs, assessed 8 days after infestation, read-out: control (mortality)
Description: Tetranychus urticae (Two-spotted spider mite): Feeding/contact activity
Bean leaf discs on agar in 24-well microtiter plates were sprayed with aqueous test solutions prepared from 10,000 ppm DMSO stock solutions. After drying the leaf discs were infested with a mite population of mixed ages. The samples were assessed for mortality on mixed population (mobile stages) 8 days after infestation.

[5] = system: Thrips tabaci (Onion Thrips); test: Thrips tabaci (Onion Thrips): Feeding/Contact activity; conditions: foliar, 144 h, application rate of 200 ppm, thrips population of mixed ages on sunflower leaf discs, assessed 6 days after infestation, read-out: control (mortality)
Description: Thrips tabaci (Onion Thrips): Feeding/Contact activity
Sunflower leaf discs were placed on agar in 24-well microtiter plates and sprayed with aqueous test solutions prepared from 10,000 ppm DMSO stock solutions. After drying the leaf discs were infested with a thrips population of mixed ages. The samples were assessed for mortality 6 days after infestation.

[6] = system: Diabrotica balteata (Corn root worm); test: Diabrotica balteata (Corn root worm), maize sprouts sprayed, L2 larvae mortality; conditions: 96 h, application rate of 200 ppm, L2 larvae on maize sprouts, assessed 4 days after infestation, read-out: control (mortality)
Description: Diabrotica balteata (Corn root worm):
Maize sprouts placed onto an agar layer in 24-well microtiter plates were treated with aqueous test solutions prepared from 10,000 ppm DMSO stock solutions by spraying. After drying, the plates were infested with L2 larvae (6 to 10 per well). The samples were assessed for mortality 4 days after infestation.

[7] = system: Plutella xylostella (Diamond back moth); test: Plutella xylostella (Diamond back moth): Feeding/contact activity; conditions: 120 h, application rate of 200 ppm, L2 larvae on artificial diet, assessed 5 days after infestation, read-out: control (mortality)
Description: Plutella xylostella (Diamond back moth): Feeding/contact activity
24-well microtiter plates with artificial diet were treated with aqueous test solutions prepared from 10,000 ppm DMSO stock solutions by pipetting. After drying, the plates were infested with L2 larvae (10 to 15 per well). The samples were assessed for mortality 5 days after infestation.

Measured: mortality at 200 ppm

N#CC1(NC(=O)c2cc(-c3cnn(-c4c(Cl)cc(C(F)(C(F)(F)F)C(F)(F)F)n4CF)c3)ccc2Cl)CC1 [Compound 29, 2-chloro-5-[1-[3-chloro-1-(fluoromethyl)-5-[1,2,2,2-tetrafluoro-1-(trifluoromethyl)ethyl]pyrrol-2-yl]pyrazol-4-yl]-N-(1-cyanocyclopropyl)benzamide]
≥ 80%: all assays above

N#CC1(NC(=O)c2cc(-c3cnn(-c4c(Br)cc(C(F)(C(F)(F)F)C(F)(F)F)n4C4CC4)c3)ccc2Cl)CC1 [Compound 42, 5-[1-[3-bromo-1-cyclopropyl-5-[1,2,2,2-tetrafluoro-1-(trifluoromethyl)ethyl]pyrrol-2-yl]pyrazol-4-yl]-2-chloro-N-(1-cyanocyclopropyl)benzamide]
≥ 80%: all assays above

Source: US11459318B2, “Pesticidally active pyrrole derivatives” (Syngenta Participations AG, priority 2017, dated 2022)
